Patent US20250034194A1, “INHIBITORS OF ABNORMAL PHOSPHORYLATION AND TAU PROTEIN AGGREGATION” (UNIVERSITE DE PICARDIE JULES VERNE, priority 2021, published 2025)

Assays:
[1] = target: T1, tau protein (4R2N, 441 amino acids) (Homo sapiens, UniProt P10636); assay: In vitro abnormal tau phosphorylation by GSK3β, competition with heparin (western blot); format: biochemical; conditions: for capacity to protect tau from its abnormal phosphorylation induced by heparin / ability to compete with heparin for abnormal tau phosphorylation by GSK3β: molecule 60 μg/mL vs heparin 12 μg/mL; for capacity to protect tau from its abnormal phosphorylation induced by heparin: AT270 antibody; for ability to compete with heparin for abnormal tau phosphorylation by GSK3β: 1.5 to 6 h of reaction, AT270, Ser199/202
T1 construct: purchased Millipore (tau); Promega (GSK3β)
T1 sequence (P10636 1-441 isoform P10636-8): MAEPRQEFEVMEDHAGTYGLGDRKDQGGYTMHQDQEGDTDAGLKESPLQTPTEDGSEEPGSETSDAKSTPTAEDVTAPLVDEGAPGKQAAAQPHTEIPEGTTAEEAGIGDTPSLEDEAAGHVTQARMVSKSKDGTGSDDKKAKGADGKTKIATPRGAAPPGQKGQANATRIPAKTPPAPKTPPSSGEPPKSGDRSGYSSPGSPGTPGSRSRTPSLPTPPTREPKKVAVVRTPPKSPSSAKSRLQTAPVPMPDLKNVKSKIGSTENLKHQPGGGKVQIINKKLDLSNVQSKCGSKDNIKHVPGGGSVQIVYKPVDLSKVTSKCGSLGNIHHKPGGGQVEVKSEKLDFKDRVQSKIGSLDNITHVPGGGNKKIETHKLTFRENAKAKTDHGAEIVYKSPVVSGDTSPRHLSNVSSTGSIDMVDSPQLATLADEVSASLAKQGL
Text: Phosphorylation of tau protein is the most common post-translational modification to regulate tau activity and functions. The longest tau isoform (4R2N, 441 amino acids) containing 85 potential phosphorylation sites was used. In vitro phosphorylation of the tau protein is done by induction, on the one hand, (FIG. 5) and, on the other hand, according to a competition process between the LG2A molecules and heparin, conventionally used to induce abnormal tau phosphorylation in vitro (FIGS. 3, 4, 6, 7, 8, 9 and 10).
For abnormal tau phosphorylation tests, GSK3p, a kinase centrally involved in this process in the brains of subjects with Alzheimer's disease (AD), was used. Analysis of tau phosphorylation by GSK3b at sites characteristic of AD is possible by the western blot technique using specific antibodies that recognize abnormally phosphorylated sites in the brain or cerebrospinal fluid of AD subjects, such as the AT270 antibody which recognizes threonine 181 (Thr181), the PHF1 antibody which recognizes serines 396 and 404 (Ser396/Ser404), and the AT8 antibody, which recognizes the Ser199/Ser202/Thr205 site.
By competition: The tau protein (40 μg/mL) is phosphorylated by the GSK3β enzyme at 4 ng/mL (Promega) in the presence of ATP (Sigma-Aldrich) at 48 μM and protease inhibitors (Sigma-Aldrich, 1/100), in the buffer mentioned above. The ability of the LG2A molecules (60 μg/mL) to compete with heparin (12 μg/mL; Sigma-Aldrich) is evaluated. Thus if the signal in the presence of the molecules is less than that obtained with heparin alone, the molecules are then defined as “protectors” from abnormal tau phosphorylation.
In both systems (induction or competition), the tau protein is incubated at 37° C. with stirring in the presence of the different elements presented above. The reaction kinetics are monitored by taking 8 μL of the samples at 1.5 h, 3 h and 6 h of incubation. Loading buffer (Euromedex) and β-mercaptoethanol (Sigma-Aldrich) are added to each sample. The samples are then stored at −20° C. until analysis by western blot.
After denaturation of the samples by heating at 95° C. for 5 minutes, the samples are deposited simultaneously with the molecular weight marker (Precision Plus Protein™ Dual Color Standards; BIO-RAD) on a 10% acrylamide gel placed in an electrophoresis tank containing migration buffer (0.25 M Tris; 1.6 M Glycine; […]; pH 8.6).
The controls used for this phosphorylation experiment followed by western blot are: • the “native tau” protein, that is to say the non-phosphorylated tau protein. • the tau protein phosphorylated by GSK3b alone in the absence of heparin. • the tau protein phosphorylated in the presence of heparin, denoted “tau+heparin”. • the “external standard” corresponding to the tau protein phosphorylated in the presence of heparin for 3 h. This standard is carried out in an experiment independently of the phosphorylation experiments in the presence of LG2A compounds. It ensures that the western blot is carried out correctly.
Then the membrane is incubated overnight with stirring at +4° C. in a solution of PBS, 0.1% Tween and 1% milk containing the primary antibody specific for tau phosphorylation sites (AT270, ThermoScientific or S199-202, Millipore).
After incubation of the PVDF membrane in the chosen primary antibody, a succession of 3 washes of 5 minutes of the membrane is carried out in PBS and 0.1% Tween with stirring and the membrane is incubated for 1 h with stirring at room temperature in a solution of 1×PBS, 0.1% Tween and 1% milk containing the diluted secondary antibody (Jackson Immuno-Research).

[2] = test system: tau phosphorylation (S262 site) in SH-SY5Y cells; assay: In cellulo tau phosphorylation test in the SH-SY5Y line (H2O2 stress induction); format: cell-based; conditions: 24 hours, then H2O2
Method: The tau phosphorylation induction model on the SH-SY5Y cell line described in the Gly-CRRET laboratory article was used here (Sepulveda-Diaz et al., 2015).
In short, SH-SY5Y cells are seeded in 6-well plates and differentiated using retinoic acid (10 μM, Sigma Aldrich) for 5 days. On day 6, the cells are placed in the presence of the Mal16diS and Mal18diS molecules at different concentrations (1, 10 or 100 μg/mL), in a final volume of 2 mL simultaneously with a well not receiving molecules. After 24 hours, the molecules are removed and the stress inducer (H2O2, Sigma Aldrich) is added to the cell medium for 30 minutes. The cells are then rinsed with 1×PBS then lysed and recovered in RIPA buffer (Thermo Fisher). The protein extracts from the cells (10 μg) are then analysed by western blot according to the same procedure described above.
The tau phosphorylation site studied here is the S262 site (Thermo Fisher), normalized to the expression of the GAPDH protein (Sigma Aldrich). The bands are quantified using the Odyssey software of the LI-COR device allowing the p-tau/GAPDH ratio to be calculated for each of the conditions. The ratio obtained for each concentration of molecule is then expressed as a percentage of the ratio obtained for the control cells, i.e., not treated by the molecules. Thus a value less than 100% corresponds to protection provided by the molecules in this cellular model of tau phosphorylation induction.
The experiment was repeated at least 4 times for each molecule dose for the “Mal16diS” and “Mal18diS” molecules and at least twice for the “Cell16diS” and “Lac16diS” molecules. The mean and standard deviation of the replicates are shown in FIGS. 13 to 16; each of the values obtained for each dose is compared to that of the control without addition of molecule by means of a t-test. Statistical differences with p-value <0.05 and <0.001 are represented by “*” and “***” respectively.

SH-SY5Y = assay: Cytotoxicity study, MTT test; format: cell-based; conditions: differentiated SH-SY5Y; 0.1 to 100 μg/mL; 24 hours
Method: In order to evaluate the level of toxicity of these molecules according to their concentration in the cellular environment, an MTT test (3-(4,5-dimethylthiazol-2-yl)-2,5-diphenyl tetrazolium bromide) is carried out (FIGS. 11 and 12) upstream of the phosphorylation tests in cellulo.
SH-SY5Y (ATCC-CRL-2266) are developed in Dulbecco's Modified Eagle Complete Medium (DMEM-GlutaMAX™, Life Technologies) with 10% foetal bovine serum (FBS) and 1% penicillin/streptomycin in an incubator at 37° C. with 5% CO2.
For this, the SH-SY5Y cells are cultured in a 6-well plate at a cell density of 200,000 cells/well and are differentiated using retinoic acid (10 μM, Sigma Aldrich) for 5 days. On day 6, the cells are brought into contact with LG2A molecules at different concentrations (0.1, 1, 10 or 100 μg/mL), in a final volume of 2 mL. After 24 hours, MTT (5 μg/mL; Sigma-Aldrich) is added to the cell medium for 2 hours at 37° C. Then the medium is removed and 200 μL of pure dimethylsulfoxide (DMSO, Sigma-Aldrich) are added to each well. The entire contents of each well are transferred to a 96-well plate and the absorbance is measured at 562 nm using the Infinite M1000 spectrofluorometer (Tecan).

[3] = target: T1, tau protein (4R2N, 441 amino acids); conditions: GSK3β; FIG. 2, Sepulveda-Diaz et al, 2015; cited from earlier work

CCCCCCCCCCCCCCCCNC(=O)C(OS(=O)(=O)[O-])C(OS(=O)(=O)[O-])C(OC1OC(COS(=O)(=O)[O-])C(OS(=O)(=O)[O-])C(OS(=O)(=O)[O-])C1OS(=O)(=O)[O-])C(COS(=O)(=O)[O-])OS(=O)(=O)[O-].[Na+].[Na+].[Na+].[Na+].[Na+].[Na+].[Na+].[Na+] [Mal16perS, N-Hexadecyl-Per-O-Sulfo-D-Maltobioamide Sodium Salt]
capacity to protect tau from its abnormal phosphorylation induced by heparin [1]: retains its ability to protect tau

CCCCCCCCCCCCCCCCCCNC(=O)[C@H](O)[C@@H](O)[C@H](O[C@H]1OC(COS(=O)(=O)[O-])[C@@H](O)C(O)[C@@H]1O)[C@H](O)COS(=O)(=O)[O-].[Na+].[Na+] (stereo partly drawn) [Mal18diS, N-Octadecyl-6,6′-Di-O-Sulfo-D-Maltobionamide Disodium]
reduction in tau phosphorylation (S262, p-tau/GAPDH) compared to untreated cells ([2]; 1 μg/mL): ~30% | reduction in tau phosphorylation (S262, p-tau/GAPDH) compared to untreated cells ([2]; 10 μg/mL): ~30% | reduction in tau phosphorylation (S262, p-tau/GAPDH) compared to untreated cells ([2]; 100 μg/mL): up to 60% | cytotoxicity (MTT) (SH-SY5Y): not cytotoxic | abnormal phosphorylation of tau (p-tau) revealed by AT270 and Ser199/202 antibodies ([1]; in presence of heparin, after 3 h of reaction): inhibited | ability to compete with heparin for abnormal tau phosphorylation by GSK3β [1]: total competition with heparin

CCCCCCCCCCCCCCNC(=O)[C@H](O)[C@@H](O)[C@H](O)[C@H](O)CO[C@H]1O[C@H](COS(=O)(=O)[O-])[C@H](O)[C@H](O)[C@H]1O.[Na+] [Mel14monoS, N-Tetradecyl-6′-O-Sulfo-Melibioamide Sodium]
ability to compete with heparin for abnormal tau phosphorylation by GSK3β [1]: do not compete with heparin

CCCCCCCCCCCCCCCCNC(=O)[C@H](O)[C@@H](O)[C@H](O)[C@H](O)CO[C@H]1O[C@H](COS(=O)(=O)[O-])[C@H](O)[C@H](O)[C@H]1O.[Na+] [Mel16monoS, N-Hexadecyl-6′-O-Sulfo-Melibioamide Sodium]
ability to compete with heparin for abnormal tau phosphorylation by GSK3β [1]: do not compete with heparin

CCCCCCCCCCCCCCCCCCNC(=O)C(O)C(O)C(O)C(O)COC1OC(COS(=O)(=O)[O-])C(O)C(O)C1O.[Na+] (centres unmarked) [Mel18monoS, N-Octadecyl-6′-O-Sulfo-Melibioamide Sodium]
ability to compete with heparin for abnormal tau phosphorylation by GSK3β [1]: do not compete with heparin

N-Hexadecyl-6 or 6′-O-Sulfo-D-Maltobioamide Sodium [Mal16monoS]
capacity to protect tau from its abnormal phosphorylation induced by heparin [1]: slight loss of the protective capacity

N-Hexadecyl-6,6′-Di-O-Sulfo-D-Cellobioamide Disodium [Cell16diS]
reduction in tau phosphorylation (S262, p-tau/GAPDH) compared to untreated cells ([2]; 1 μg/mL): approximately 34% | reduction in tau phosphorylation (S262, p-tau/GAPDH) compared to untreated cells ([2]; 10 μg/mL): 17% | reduction in tau phosphorylation (S262, p-tau/GAPDH) compared to untreated cells ([2]; 100 μg/mL): 20% | ability to compete with heparin for abnormal tau phosphorylation by GSK3β [1]: total competition with heparin

N-Hexadecyl-6,6′-Di-O-Sulfo-Lactobioamide Disodium [Lac16diS]
reduction in tau phosphorylation (S262, p-tau/GAPDH) compared to untreated cells ([2]; 1 μg/mL): 25% | reduction in tau phosphorylation (S262, p-tau/GAPDH) compared to untreated cells ([2]; 100 μg/mL): 54% | ability to compete with heparin for abnormal tau phosphorylation by GSK3β [1]: total competition with heparin

N-Hexadecyl-D-Glucuronyl-(α-1,4)-D-Xyluronamide [Mal16diOx]
capacity to protect tau from its abnormal phosphorylation induced by heparin [1]: less effective than disulphated maltobionamide compounds with the same chain length

N-Hexadecyl-Tri-O-Sulfo-D-Maltobioamide Trisodium [Mal16triS]
capacity to protect tau from its abnormal phosphorylation induced by heparin [1]: maintenance of this capacity to protect tau

N-Octadecyl-6 or 6′-O-Sulfo-D-Maltobioamide Sodium [Mal18monoS]
capacity to protect tau from its abnormal phosphorylation induced by heparin [1]: slight loss of the protective capacity

N-Octadecyl-6,6′-Di-O-Sulfo-D-Cellobioamide Disodium [Cell18diS]
ability to compete with heparin for abnormal tau phosphorylation by GSK3β [1]: total competition with heparin

N-Octadecyl-6,6′-Di-O-Sulfo-Lactobioamide Disodium [Lac18diS]
ability to compete with heparin for abnormal tau phosphorylation by GSK3β [1]: total competition with heparin

N-Octadecyl-D-Glucuronyl-(α-1,4)-D-Xyluronamide [Mal18diOx]
ability to compete with heparin for abnormal tau phosphorylation by GSK3β [1]: does not compete with heparin

N-Octadecyl-Tri-O-Sulfo-D-Maltobioamide Trisodium [Mal18triS]
capacity to protect tau from its abnormal phosphorylation induced by heparin [1]: maintenance of this capacity to protect tau

heparin
phosphorylation of tau on sites characteristic of AD in the presence of heparin [3]: phosphorylation at all tau sites takes place
